In ChEMBL document CHEMBL4819051, “Synthesis and antifungal activity of new hybrids thiazolo[4,5-d]pyrimidines with (1H-1,2,4)triazole” (Bioorg Med Chem Lett, 2021):
In brackets after ≈: the same amount, converted by molar mass.

Assays:
Aspergillus niger [1] = experiment: Antifungal activity against Aspergillus niger 37a assessed as reduction in fungal growth incubated for 24 hrs by CLSI based serial microbroth dilution method; type: functional
Candida tropicalis [2] = experiment: Antifungal activity against Candida tropicalis 3019 assessed as reduction in fungal growth incubated for 48 hrs by CLSI based serial microbroth dilution method; type: functional
Candida albicans [3] = experiment: Antifungal activity against Candida albicans 8R assessed as reduction in fungal growth incubated for 48 hrs by CLSI based serial microbroth dilution method; type: functional
Pichia kudriavzevii [4] = experiment: Antifungal activity against Candida krusei 432M assessed as reduction in fungal growth incubated for 24 hrs by CLSI based serial microbroth dilution method; type: functional
Candida albicans [5] = experiment: Antifungal activity against Candida albicans 604M assessed as reduction in fungal growth incubated for 24 hrs by CLSI based serial microbroth dilution method; type: functional
Trichophyton rubrum [6] = experiment: Antifungal activity against Trichophyton rubrum 2002 assessed as reduction in fungal growth incubated for 24 hrs by CLSI based serial microbroth dilution method; type: functional
Candida albicans [7] = experiment: Antifungal activity against Candida albicans ATCC 24433 assessed as reduction in fungal growth incubated for 48 hrs by CLSI based serial microbroth dilution method; type: functional
Trichophyton rubrum [8] = experiment: Antifungal activity against Trichophyton rubrum 2002 assessed as reduction in fungal growth incubated for 48 hrs by CLSI based serial microbroth dilution method; type: functional
Candida albicans [9] = experiment: Antifungal activity against Candida albicans CBS 8837 assessed as reduction in fungal growth incubated for 48 hrs by CLSI based serial microbroth dilution method; type: functional
Microsporum canis [10] = experiment: Antifungal activity against Microsporum canis B-200 assessed as reduction in fungal growth incubated for 48 hrs by CLSI based serial microbroth dilution method; type: functional
Nakaseomyces glabratus [11] = experiment: Antifungal activity against Candida glabrata 61L assessed as reduction in fungal growth incubated for 24 hrs by CLSI based serial microbroth dilution method; type: functional
Nakaseomyces glabratus [12] = experiment: Antifungal activity against Candida glabrata 61L assessed as reduction in fungal growth incubated for 48 hrs by CLSI based serial microbroth dilution method; type: functional
Candida parapsilosis [13] = experiment: Antifungal activity against Candida parapsilosis ATCC 22019 assessed as reduction in fungal growth incubated for 48 hrs by CLSI based serial microbroth dilution method; type: functional; conditions: Lodderomyces parapsilosis
Microsporum canis [14] = experiment: Antifungal activity against Microsporum canis B-200 assessed as reduction in fungal growth incubated for 24 hrs by CLSI based serial microbroth dilution method; type: functional
Pichia kudriavzevii [15] = experiment: Antifungal activity against Candida krusei 432M assessed as reduction in fungal growth incubated for 48 hrs by CLSI based serial microbroth dilution method; type: functional
Aspergillus niger [16] = experiment: Antifungal activity against Aspergillus niger 37a assessed as reduction in fungal growth incubated for 48 hrs by CLSI based serial microbroth dilution method; type: functional
Candida tropicalis [17] = experiment: Antifungal activity against Candida tropicalis 3019 assessed as reduction in fungal growth incubated for 24 hrs by CLSI based serial microbroth dilution method; type: functional
Cyberlindnera jadinii [18] = experiment: Antifungal activity against Candida utilis 84 assessed as reduction in fungal growth incubated for 48 hrs by CLSI based serial microbroth dilution method; type: functional; conditions: Williopsis jadinii
Cyberlindnera jadinii [19] = experiment: Antifungal activity against Candida utilis 84 assessed as reduction in fungal growth incubated for 24 hrs by CLSI based serial microbroth dilution method; type: functional; conditions: Williopsis jadinii
Candida albicans [20] = experiment: Antifungal activity against Candida albicans 8R assessed as reduction in fungal growth incubated for 24 hrs by CLSI based serial microbroth dilution method; type: functional
Candida parapsilosis [21] = experiment: Antifungal activity against Candida parapsilosis ATCC 22019 assessed as reduction in fungal growth incubated for 24 hrs by CLSI based serial microbroth dilution method; type: functional; conditions: Lodderomyces parapsilosis
Cryptococcus neoformans [22] = experiment: Antifungal activity against Cryptococcus neoformans assessed as reduction in fungal growth incubated for 48 hrs by CLSI based serial microbroth dilution method; type: functional
Candida albicans [23] = experiment: Antifungal activity against Candida albicans ATCC 24433 assessed as reduction in fungal growth incubated for 24 hrs by CLSI based serial microbroth dilution method; type: functional
Cryptococcus neoformans [24] = experiment: Antifungal activity against Cryptococcus neoformans assessed as reduction in fungal growth incubated for 24 hrs by CLSI based serial microbroth dilution method; type: functional
Candida albicans [25] = experiment: Antifungal activity against Candida albicans 604M assessed as reduction in fungal growth incubated for 48 hrs by CLSI based serial microbroth dilution method; type: functional
Candida albicans [26] = experiment: Antifungal activity against Candida albicans CBS 8837 assessed as reduction in fungal growth incubated for 24 hrs by CLSI based serial microbroth dilution method; type: functional
[27] = 1-octanol/aqueous buffer distribution coefficient, logP of the compound at pH 7.4; type: physicochemical

O=c1c2sc(=S)n(-c3ccc(F)cc3)c2ncn1CCCN1CCN(CC(O)(Cn2cncn2)c2ccc(F)cc2F)CC1 (stereo not drawn)
MIC (Aspergillus niger [1]): 16 µg/mL (≈ 24.9 µM)
MIC (Candida tropicalis [2]): 4 µg/mL (≈ 6.22 µM)
MIC (Candida albicans [3]): 32 µg/mL (≈ 49.8 µM)
MIC (Pichia kudriavzevii [4]): 8 µg/mL (≈ 12.4 µM)
MIC (Candida albicans [5]): 32 µg/mL (≈ 49.8 µM)
MIC (Trichophyton rubrum [6]): 32 µg/mL (≈ 49.8 µM)
MIC (Candida albicans [7]): 8 µg/mL (≈ 12.4 µM)
MIC (Trichophyton rubrum [8]): 32 µg/mL (≈ 49.8 µM)
MIC (Candida albicans [9]): 32 µg/mL (≈ 49.8 µM)
MIC (Microsporum canis [10]): 4 µg/mL (≈ 6.22 µM)
MIC (Nakaseomyces glabratus [11]): 4 µg/mL (≈ 6.22 µM)
MIC (Nakaseomyces glabratus [12]): 32 µg/mL (≈ 49.8 µM)
MIC (Candida parapsilosis [13]): 0.125 µg/mL (≈ 0.194 µM)
MIC (Microsporum canis [14]): 4 µg/mL (≈ 6.22 µM)
MIC (Pichia kudriavzevii [15]): 16 µg/mL (≈ 24.9 µM)
MIC (Aspergillus niger [16]): 16 µg/mL (≈ 24.9 µM)
MIC (Candida tropicalis [17]): 4 µg/mL (≈ 6.22 µM)
MIC (Cyberlindnera jadinii [18]): 1 µg/mL (≈ 1.56 µM)
MIC (Cyberlindnera jadinii [19]): 1 µg/mL (≈ 1.56 µM)
MIC (Candida albicans [20]): 32 µg/mL (≈ 49.8 µM)
MIC (Candida parapsilosis [21]): 0.06 µg/mL (≈ 0.0934 µM)
MIC (Cryptococcus neoformans [22]): 16 µg/mL (≈ 24.9 µM)
MIC (Candida albicans [23]): 8 µg/mL (≈ 12.4 µM)
MIC (Cryptococcus neoformans [24]): 16 µg/mL (≈ 24.9 µM)
MIC (Candida albicans [25]): 32 µg/mL (≈ 49.8 µM)
MIC (Candida albicans [26]): 16 µg/mL (≈ 24.9 µM)

Cc1ccc(-n2c(=S)sc3c(=O)n(CCN4CCN(CC(O)(Cn5cncn5)c5ccc(F)cc5F)CC4)cnc32)cc1 (stereo not drawn)
MIC (Aspergillus niger [1]): 32 µg/mL (≈ 51.2 µM)
MIC (Candida tropicalis [2]): 8 µg/mL (≈ 12.8 µM)
logD [27]: 2.9
MIC (Candida albicans [3]): 32 µg/mL (≈ 51.2 µM)
MIC (Pichia kudriavzevii [4]): 16 µg/mL (≈ 25.6 µM)
MIC (Candida albicans [5]): 16 µg/mL (≈ 25.6 µM)
MIC (Trichophyton rubrum [6]): 32 µg/mL (≈ 51.2 µM)
MIC (Candida albicans [7]): 16 µg/mL (≈ 25.6 µM)
MIC (Trichophyton rubrum [8]): 32 µg/mL (≈ 51.2 µM)
MIC (Candida albicans [9]): 32 µg/mL (≈ 51.2 µM)
MIC (Microsporum canis [10]): 32 µg/mL (≈ 51.2 µM)
MIC (Nakaseomyces glabratus [11]): 4 µg/mL (≈ 6.4 µM)
MIC (Nakaseomyces glabratus [12]): 32 µg/mL (≈ 51.2 µM)
MIC (Candida parapsilosis [13]): 0.5 µg/mL (≈ 0.8 µM)
MIC (Microsporum canis [14]): 32 µg/mL (≈ 51.2 µM)
MIC (Pichia kudriavzevii [15]): 32 µg/mL (≈ 51.2 µM)
MIC (Aspergillus niger [16]): 32 µg/mL (≈ 51.2 µM)
MIC (Candida tropicalis [17]): 4 µg/mL (≈ 6.4 µM)
MIC (Cyberlindnera jadinii [18]): 4 µg/mL (≈ 6.4 µM)
MIC (Cyberlindnera jadinii [19]): 2 µg/mL (≈ 3.2 µM)
MIC (Candida albicans [20]): 32 µg/mL (≈ 51.2 µM)
MIC (Candida parapsilosis [21]): 0.5 µg/mL (≈ 0.8 µM)
MIC (Cryptococcus neoformans [22]): 32 µg/mL (≈ 51.2 µM)
MIC (Candida albicans [23]): 8 µg/mL (≈ 12.8 µM)
MIC (Cryptococcus neoformans [24]): 32 µg/mL (≈ 51.2 µM)
MIC (Candida albicans [25]): 32 µg/mL (≈ 51.2 µM)
MIC (Candida albicans [26]): 16 µg/mL (≈ 25.6 µM)

COc1ccccc1-n1c(=S)sc2c(=O)n(CC(=O)NCC(O)(Cn3cncn3)c3ccc(F)cc3F)cnc21 (stereo not drawn)
logD [27]: 0.8

COc1ccccc1-n1c(=S)sc2c(=O)n(CC(O)(Cn3cncn3)c3ccc(F)cc3F)cnc21 (stereo not drawn)
logD [27]: 1.19

O=c1c2sc(=S)n(-c3ccc(F)cc3)c2ncn1CCN1CCN(CC(O)(Cn2cncn2)c2ccc(F)cc2F)CC1 (stereo not drawn)
MIC (Aspergillus niger [1]): 32 µg/mL (≈ 50.9 µM)
MIC (Candida tropicalis [2]): 32 µg/mL (≈ 50.9 µM)
MIC (Candida albicans [3]): 32 µg/mL (≈ 50.9 µM)
MIC (Pichia kudriavzevii [4]): 32 µg/mL (≈ 50.9 µM)
MIC (Candida albicans [5]): 32 µg/mL (≈ 50.9 µM)
MIC (Trichophyton rubrum [6]): 32 µg/mL (≈ 50.9 µM)
MIC (Candida albicans [7]): 8 µg/mL (≈ 12.7 µM)
MIC (Trichophyton rubrum [8]): 32 µg/mL (≈ 50.9 µM)
MIC (Candida albicans [9]): 32 µg/mL (≈ 50.9 µM)
MIC (Microsporum canis [10]): 32 µg/mL (≈ 50.9 µM)
MIC (Nakaseomyces glabratus [11]): 32 µg/mL (≈ 50.9 µM)
MIC (Nakaseomyces glabratus [12]): 32 µg/mL (≈ 50.9 µM)
MIC (Candida parapsilosis [13]): 1 µg/mL (≈ 1.59 µM)
MIC (Microsporum canis [14]): 32 µg/mL (≈ 50.9 µM)
MIC (Pichia kudriavzevii [15]): 32 µg/mL (≈ 50.9 µM)
MIC (Aspergillus niger [16]): 32 µg/mL (≈ 50.9 µM)
MIC (Candida tropicalis [17]): 32 µg/mL (≈ 50.9 µM)
MIC (Cyberlindnera jadinii [18]): 32 µg/mL (≈ 50.9 µM)
MIC (Cyberlindnera jadinii [19]): 32 µg/mL (≈ 50.9 µM)
MIC (Candida albicans [20]): 32 µg/mL (≈ 50.9 µM)
MIC (Candida parapsilosis [21]): 0.5 µg/mL (≈ 0.795 µM)
MIC (Cryptococcus neoformans [22]): 32 µg/mL (≈ 50.9 µM)
MIC (Candida albicans [23]): 8 µg/mL (≈ 12.7 µM)
MIC (Cryptococcus neoformans [24]): 32 µg/mL (≈ 50.9 µM)
MIC (Candida albicans [25]): 32 µg/mL (≈ 50.9 µM)
MIC (Candida albicans [26]): 32 µg/mL (≈ 50.9 µM)

COc1ccccc1-n1c(=S)sc2c(=O)n(CC(O)CN3CCN(CC(O)(Cn4cncn4)c4ccc(F)cc4F)CC3)cnc21 (stereo not drawn)
logD [27]: 2.91

OC(Cn1cncn1)(Cn1cncn1)c1ccc(F)cc1F [FLUCONAZOLE]
MIC (Aspergillus niger [1]): 64 µg/mL (≈ 209 µM)
MIC (Candida tropicalis [2]): 2 µg/mL (≈ 6.53 µM)
MIC (Candida albicans [3]): 128 µg/mL (≈ 418 µM)
MIC (Pichia kudriavzevii [4]): 32 µg/mL (≈ 104 µM)
MIC (Candida albicans [5]): 64 µg/mL (≈ 209 µM)
MIC (Trichophyton rubrum [6]): 64 µg/mL (≈ 209 µM)
MIC (Candida albicans [7]): 4 µg/mL (≈ 13.1 µM)
MIC (Trichophyton rubrum [8]): 128 µg/mL (≈ 418 µM)
MIC (Candida albicans [9]): 128 µg/mL (≈ 418 µM)
MIC (Microsporum canis [10]): 32 µg/mL (≈ 104 µM)
MIC (Nakaseomyces glabratus [11]): 8 µg/mL (≈ 26.1 µM)
MIC (Nakaseomyces glabratus [12]): 32 µg/mL (≈ 104 µM)
MIC (Candida parapsilosis [13]): 4 µg/mL (≈ 13.1 µM)
MIC (Microsporum canis [14]): 32 µg/mL (≈ 104 µM)
MIC (Pichia kudriavzevii [15]): 64 µg/mL (≈ 209 µM)
MIC (Aspergillus niger [16]): 64 µg/mL (≈ 209 µM)
MIC (Candida tropicalis [17]): 1 µg/mL (≈ 3.27 µM)
MIC (Cyberlindnera jadinii [18]): 2 µg/mL (≈ 6.53 µM)
MIC (Cyberlindnera jadinii [19]): 2 µg/mL (≈ 6.53 µM)
MIC (Candida albicans [20]): 128 µg/mL (≈ 418 µM)
MIC (Candida parapsilosis [21]): 2 µg/mL (≈ 6.53 µM)
MIC (Cryptococcus neoformans [22]): 16 µg/mL (≈ 52.2 µM)
MIC (Candida albicans [23]): 4 µg/mL (≈ 13.1 µM)
MIC (Cryptococcus neoformans [24]): 16 µg/mL (≈ 52.2 µM)
MIC (Candida albicans [25]): 64 µg/mL (≈ 209 µM)
MIC (Candida albicans [26]): 128 µg/mL (≈ 418 µM)
